Key:
Assay type in all cases: in vivo
[1] = tested on: Italian ryegrass (Lolium mutiflorum); test: Test C preemergence, visual plant response rating; settings: Test C, 0 is no effect, 100 is complete control
Outline: (§1)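 Compounds in a non-phytotoxic solvent with surfactant were applied as a directed soil spray preemergence or to 2–10 cm, one- to two-leaf plants postemergence, in loam–sand soil. After about 10 d in a greenhouse, injury was visually rated against untreated controls on a 0–100 scale (100 = complete control).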

[2] = tested on: barnyardgrass (Echinochloa crus-galli); test: Test C preemergence, visual plant response rating; settings: Test C, 0 is no effect, 100 is complete control
Outline: as §1

[3] = tested on: foxtail, giant (giant foxtail, Setaria faberi); test: Test C preemergence, visual plant response rating; settings: Test C, 0 is no effect, 100 is complete control
Outline: as §1

kochia (Bassia scoparia) [4] = test: Test C preemergence, visual plant response rating; settings: Test C, 0 is no effect, 100 is complete control
Outline: as §1

[5] = tested on: pigweed (Amaranthus retroflexus); test: Test C preemergence, visual plant response rating; settings: Test C, 0 is no effect, 100 is complete control
Outline: as §1

[6] = tested on: ragweed (common ragweed, Ambrosia artemisiifolia); test: Test C preemergence, visual plant response rating; settings: Test C, 0 is no effect, 100 is complete control
Outline: as §1

[7] = tested on: Italian ryegrass (Lolium mutiflorum); test: Test C postemergence, visual plant response rating
Outline: as §1

[8] = tested on: barnyardgrass (Echinochloa crus-galli); test: Test C postemergence, visual plant response rating
Outline: as §1

[9] = tested on: blackgrass (Alopecurus myosuroides); test: Test C postemergence, visual plant response rating
Outline: as §1

corn (Zea mays) = test: Test C postemergence, visual plant response rating
Outline: as §1

[10] = tested on: foxtail, giant (giant foxtail, Setaria faberi); test: Test C postemergence, visual plant response rating
Outline: as §1

[11] = tested on: galium (catchweed bedstraw, Galium aparine); test: Test C postemergence, visual plant response rating
Outline: as §1

kochia (Bassia scoparia) [12] = test: Test C postemergence, visual plant response rating
Outline: as §1

[13] = tested on: pigweed (Amaranthus retroflexus); test: Test C postemergence, visual plant response rating
Outline: as §1

[14] = tested on: ragweed (common ragweed, Ambrosia artemisiifolia); test: Test C postemergence, visual plant response rating
Outline: as §1

[15] = tested on: wheat (Triticum aestivum); test: Test C postemergence, visual plant response rating
Outline: as §1

[16] = tested on: barnyardgrass (Echinochloa crus-galli); test: Test D flooded paddy test, visual plant response rating; settings: 250 g ai/ha, scale 0 to 100 (0 no effect, 100 complete control), 13 to 15 d
Outline: (§2)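 2-leaf plants, flooded 3 cm, cpd into paddy water; greenhouse 13–15 d; visual rating vs controls, 0 = no effect, 100 = complete control; dash = no result.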

[17] = tested on: duck salad (Heteranthera limosa); test: as above; settings: 250 g ai/ha, scale 0 to 100 (0 no effect, 100 complete control), 13 to 15 d
Outline: as §2

rice (Oryza sativa) = test: as above; settings: 250 g ai/ha, scale 0 to 100 (0 no effect, 100 complete control), 13 to 15 d
Outline: as §2

[18] = tested on: sedge umbrella (small-flower umbrella sedge, Cyperus difformis); test: as above; settings: 250 g ai/ha, scale 0 to 100 (0 no effect, 100 complete control), 13 to 15 d
Outline: as §2

[19] = Test C, postemergence, 125 g ai/ha

CO/N=C(/c1c(O)c(C)nn(C)c1=O)c1cccc2cc(SC)ccc12 [Compound 297]
Ryegrass, Italian plant response rating (0 to 100 scale) ([1]; 31 g ai/ha): 0 | Ryegrass, Italian plant response rating (0 to 100 scale) ([1]; 125 g ai/ha): 0 | Barnyardgrass plant response rating (0 to 100 scale) ([2]; 31 g ai/ha): 0 | Barnyardgrass plant response rating (0 to 100 scale) ([2]; 125 g ai/ha): 0 | Foxtail, Giant plant response rating (0 to 100 scale) ([3]; 31 g ai/ha): 0 | Foxtail, Giant plant response rating (0 to 100 scale) ([3]; 125 g ai/ha): 0 | Kochia plant response rating (0 to 100 scale) (kochia (Bassia scoparia) [4]; 31 g ai/ha): 0 | Kochia plant response rating (0 to 100 scale) (kochia (Bassia scoparia) [4]; 125 g ai/ha): 0 | Pigweed plant response rating (0 to 100 scale) ([5]; 31 g ai/ha): 0 | Pigweed plant response rating (0 to 100 scale) ([5]; 125 g ai/ha): 0 | Ragweed plant response rating (0 to 100 scale) ([6]; 31 g ai/ha): 0 | Ragweed plant response rating (0 to 100 scale) ([6]; 125 g ai/ha): 0 | Ryegrass, Italian plant response rating (0 to 100 scale) ([7]; Postemergence, 31 g ai/ha): 0 | Ryegrass, Italian plant response rating (0 to 100 scale) [7, 19]: 0 | Barnyardgrass plant response rating (0 to 100 scale) ([8]; Postemergence, 31 g ai/ha): 0 | Barnyardgrass plant response rating (0 to 100 scale) [8, 19]: 0 | Blackgrass plant response rating (0 to 100 scale) ([9]; Postemergence, 31 g ai/ha): 0 | Blackgrass plant response rating (0 to 100 scale) [9, 19]: 0 | Corn plant response rating (0 to 100 scale) (corn (Zea mays); Postemergence, 31 g ai/ha): 0 | Corn plant response rating (0 to 100 scale) (corn (Zea mays); [19]): 0 | Foxtail, Giant plant response rating (0 to 100 scale) ([10]; Postemergence, 31 g ai/ha): 0 | Foxtail, Giant plant response rating (0 to 100 scale) [10, 19]: 0 | Galium plant response rating (0 to 100 scale) ([11]; Postemergence, 31 g ai/ha): 0 | Galium plant response rating (0 to 100 scale) [11, 19]: 0 | Kochia plant response rating (0 to 100 scale) (kochia (Bassia scoparia) [12]; Postemergence, 31 g ai/ha): 0 | Kochia plant response rating (0 to 100 scale) (kochia (Bassia scoparia) [12]; [19]): 0 | Pigweed plant response rating (0 to 100 scale) ([13]; Postemergence, 31 g ai/ha): 0 | Pigweed plant response rating (0 to 100 scale) [13, 19]: 0 | Ragweed plant response rating (0 to 100 scale) ([14]; Postemergence, 31 g ai/ha): 0 | Ragweed plant response rating (0 to 100 scale) [14, 19]: 0 | Wheat plant response rating (0 to 100 scale) ([15]; Postemergence, 31 g ai/ha): 0 | Wheat plant response rating (0 to 100 scale) [15, 19]: 0 | Plant response rating, Barnyardgrass (Flood) [16]: 0 | Plant response rating, Ducksalad (Flood) [17]: 0 | Plant response rating, Rice (Flood) (rice (Oryza sativa)): 0 | Plant response rating, Sedge, Umbrella (Flood) [18]: 0

CO/N=C(\c1c(O)c(C)nn(C)c1=O)c1cccc2cc(Cl)ccc12 [Compound 300]
Ryegrass, Italian plant response rating (0 to 100 scale) ([1]; 31 g ai/ha): 10 | Ryegrass, Italian plant response rating (0 to 100 scale) ([1]; 125 g ai/ha): 70 | Barnyardgrass plant response rating (0 to 100 scale) ([2]; 31 g ai/ha): 40 | Barnyardgrass plant response rating (0 to 100 scale) ([2]; 125 g ai/ha): 60 | Foxtail, Giant plant response rating (0 to 100 scale) ([3]; 31 g ai/ha): 40 | Foxtail, Giant plant response rating (0 to 100 scale) ([3]; 125 g ai/ha): 80 | Kochia plant response rating (0 to 100 scale) (kochia (Bassia scoparia) [4]; 31 g ai/ha): 0 | Kochia plant response rating (0 to 100 scale) (kochia (Bassia scoparia) [4]; 125 g ai/ha): 30 | Pigweed plant response rating (0 to 100 scale) ([5]; 31 g ai/ha): 30 | Pigweed plant response rating (0 to 100 scale) ([5]; 125 g ai/ha): 90 | Ragweed plant response rating (0 to 100 scale) ([6]; 31 g ai/ha): 0 | Ragweed plant response rating (0 to 100 scale) ([6]; 125 g ai/ha): 20 | Ryegrass, Italian plant response rating (0 to 100 scale) ([7]; Postemergence, 31 g ai/ha): 10 | Ryegrass, Italian plant response rating (0 to 100 scale) [7, 19]: 40 | Barnyardgrass plant response rating (0 to 100 scale) ([8]; Postemergence, 31 g ai/ha): 30 | Barnyardgrass plant response rating (0 to 100 scale) [8, 19]: 70 | Blackgrass plant response rating (0 to 100 scale) ([9]; Postemergence, 31 g ai/ha): 30 | Blackgrass plant response rating (0 to 100 scale) [9, 19]: 80 | Corn plant response rating (0 to 100 scale) (corn (Zea mays); Postemergence, 31 g ai/ha): 10 | Corn plant response rating (0 to 100 scale) (corn (Zea mays); [19]): 30 | Foxtail, Giant plant response rating (0 to 100 scale) ([10]; Postemergence, 31 g ai/ha): 60 | Foxtail, Giant plant response rating (0 to 100 scale) [10, 19]: 80 | Galium plant response rating (0 to 100 scale) ([11]; Postemergence, 31 g ai/ha): 90 | Galium plant response rating (0 to 100 scale) [11, 19]: 100 | Kochia plant response rating (0 to 100 scale) (kochia (Bassia scoparia) [12]; Postemergence, 31 g ai/ha): 40 | Kochia plant response rating (0 to 100 scale) (kochia (Bassia scoparia) [12]; [19]): 50 | Pigweed plant response rating (0 to 100 scale) ([13]; Postemergence, 31 g ai/ha): 80 | Pigweed plant response rating (0 to 100 scale) [13, 19]: 80 | Ragweed plant response rating (0 to 100 scale) ([14]; Postemergence, 31 g ai/ha): 30 | Ragweed plant response rating (0 to 100 scale) [14, 19]: 90 | Wheat plant response rating (0 to 100 scale) ([15]; Postemergence, 31 g ai/ha): 0 | Wheat plant response rating (0 to 100 scale) [15, 19]: 0 | Plant response rating, Barnyardgrass (Flood) [16]: 15 | Plant response rating, Ducksalad (Flood) [17]: 55 | Plant response rating, Rice (Flood) (rice (Oryza sativa)): 20 | Plant response rating, Sedge, Umbrella (Flood) [18]: 45

CO/N=C(/c1c(O)c(C)nn(C)c1=O)c1cccc2cc(Cl)ccc12 [Compound 301]
Ryegrass, Italian plant response rating (0 to 100 scale) ([1]; 31 g ai/ha): 0 | Ryegrass, Italian plant response rating (0 to 100 scale) ([1]; 125 g ai/ha): 30 | Barnyardgrass plant response rating (0 to 100 scale) ([2]; 31 g ai/ha): 0 | Barnyardgrass plant response rating (0 to 100 scale) ([2]; 125 g ai/ha): 40 | Foxtail, Giant plant response rating (0 to 100 scale) ([3]; 31 g ai/ha): 20 | Foxtail, Giant plant response rating (0 to 100 scale) ([3]; 125 g ai/ha): 80 | Kochia plant response rating (0 to 100 scale) (kochia (Bassia scoparia) [4]; 31 g ai/ha): 0 | Kochia plant response rating (0 to 100 scale) (kochia (Bassia scoparia) [4]; 125 g ai/ha): 0 | Pigweed plant response rating (0 to 100 scale) ([5]; 31 g ai/ha): 0 | Pigweed plant response rating (0 to 100 scale) ([5]; 125 g ai/ha): 20 | Ragweed plant response rating (0 to 100 scale) ([6]; 31 g ai/ha): 0 | Ragweed plant response rating (0 to 100 scale) ([6]; 125 g ai/ha): 0 | Ryegrass, Italian plant response rating (0 to 100 scale) ([7]; Postemergence, 31 g ai/ha): 0 | Ryegrass, Italian plant response rating (0 to 100 scale) [7, 19]: 10 | Barnyardgrass plant response rating (0 to 100 scale) ([8]; Postemergence, 31 g ai/ha): 20 | Barnyardgrass plant response rating (0 to 100 scale) [8, 19]: 40 | Blackgrass plant response rating (0 to 100 scale) ([9]; Postemergence, 31 g ai/ha): 0 | Blackgrass plant response rating (0 to 100 scale) [9, 19]: 60 | Corn plant response rating (0 to 100 scale) (corn (Zea mays); Postemergence, 31 g ai/ha): 0 | Corn plant response rating (0 to 100 scale) (corn (Zea mays); [19]): 20 | Foxtail, Giant plant response rating (0 to 100 scale) ([10]; Postemergence, 31 g ai/ha): 40 | Foxtail, Giant plant response rating (0 to 100 scale) [10, 19]: 70 | Galium plant response rating (0 to 100 scale) ([11]; Postemergence, 31 g ai/ha): 70 | Galium plant response rating (0 to 100 scale) [11, 19]: 90 | Kochia plant response rating (0 to 100 scale) (kochia (Bassia scoparia) [12]; Postemergence, 31 g ai/ha): 0 | Kochia plant response rating (0 to 100 scale) (kochia (Bassia scoparia) [12]; [19]): 30 | Pigweed plant response rating (0 to 100 scale) ([13]; Postemergence, 31 g ai/ha): 50 | Pigweed plant response rating (0 to 100 scale) [13, 19]: 70 | Ragweed plant response rating (0 to 100 scale) ([14]; Postemergence, 31 g ai/ha): 10 | Ragweed plant response rating (0 to 100 scale) [14, 19]: 30 | Wheat plant response rating (0 to 100 scale) ([15]; Postemergence, 31 g ai/ha): 0 | Wheat plant response rating (0 to 100 scale) [15, 19]: 0 | Plant response rating, Barnyardgrass (Flood) [16]: 0 | Plant response rating, Ducksalad (Flood) [17]: 0 | Plant response rating, Rice (Flood) (rice (Oryza sativa)): 0 | Plant response rating, Sedge, Umbrella (Flood) [18]: 0
